{
  "source": "patent US7858655B2",
  "about": "“Drug preparation comprising α-lipoic acid, ambroxol and/or inhibitors of the angiotensin-converting enzyme (ACE) and its use for the treatment of neurodegenerative diseases” (Keyneurotek Pharmaceuticals AG, priority 2004, dated 2010)",
  "test_system": "neuronal cells in organotypical hippocampal tissue cuts",
  "assay": "transient oxygen/glucose deprivation (OGD) of organotypical hippocampal tissue cuts, neuronal damage",
  "assay_type": "cell-based, rats",
  "conditions": "for neuronal damage, % of the damaged surface area, Median / neuronal damage, % of the damaged surface area, Average Value: after standard OGD with the substance applied, cocktail = α-lipoic acid 10 μg/ml, ambroxol 10 μM, Enalapril 20 μg/ml; for neuronal damage, % of the damaged surface area, Average Value: Control OGD (vehicle) 11.70-13.98; for neuroprotective effect, reduction of the neuronal damage after OGD (in words): after transient OGD, versus standard damage",
  "excerpt": "For examining the neuroprotective effect of the thiol-reactive substances, the procedure of a transient ischemia for organotypical hippocampal tissue cuts was used, which procedure was standardized in our laboratory. By such a procedure, there are obtained three-dimensional cultivated explantates having a high prediction value for subsequent clinical experiments. In those tissue cultures containing neuronal as well as non-neuronal cells, highly complex intercellular connections are maintained largely. They are of extraordinary importance for the functionality of the whole CNS. The cerebral tissue cultures are exposed to a degenerative event which results into a death of neuronal cells in analogy to clinical situations. The tissue cuts (375 μm) were prepared subsequently from the hippocampus of rats (P7). The cultivation of those cut cultures was effected on membrane inserts having a pore size of 0.02 μm. After 10 to 12 days of cultivation (37° C. in an incubator; 3.3% CO2; 98% relative air humidity), the restructuration processes within the tissue cultures were finished, and a clinical relevant neurodegenerative event was simulated on the tissue cuts by means of a transient oxygen/glucose deprivation. The effect of the substanc(es) was measured in the form of a standard damage change (vehicle application). […] There was quantified the neuronal damage after a standard OGD with and without the application of the cocktail as well as the damage by the application of the cocktail per se (optional toxicity of the substance). The damage is expressed in % of the damaged surface area. In order to obtain such figures, in each tissue cut the whole surface area was compared with the damaged surface area. […] The experiments are based on the protocol described in Example 2. In the course of the experiments shown in FIGS. […], the protective effect of the cocktail was compared with the standard damage after OGD and with the effect resulting from an application of the single substances. […] Tables […] show the relevant statistical parameters.",
  "note": "Where a name gives a salt, the structure may show the parent alone.",
  "data": [
    {"smiles": "Nc1c(Br)cc(Br)cc1CNC1CCC(O)CC1", "note": "(stereo not drawn) [Ambroxol, trans-4-(2-amino-3,5-dibromobenzylamino-) cyclohexane hydrochloride]", "values": [
      {"measurement": "neuronal damage, % of the damaged surface area, Median", "result": 8.32, "unit": "%"},
      {"measurement": "neuronal damage, % of the damaged surface area, Average Value", "result": 10.79, "unit": "%"},
      {"measurement": "neuroprotective effect, reduction of the neuronal damage after OGD (in words)", "result": "neither α-lipoic acid nor ambroxol nor the ACE inhibitor, if applied alone, were capable of reducing the neuronal damage significantly"}
    ]},
    {"smiles": "CCOC(=O)[C@H](CCc1ccccc1)N[C@@H](C)C(=O)N1CCC[C@H]1C(=O)O", "note": "[Enalapril, 1-{N-[(S)-1-Ethoxycarbonyl-3-phenylpropyl-]L-alanyl-}L-proline]", "values": [
      {"measurement": "neuronal damage, % of the damaged surface area, Median", "result": 8.70, "unit": "%"},
      {"measurement": "neuronal damage, % of the damaged surface area, Average Value", "result": 11.23, "unit": "%"},
      {"measurement": "neuroprotective effect, reduction of the neuronal damage after OGD (in words)", "result": "neither α-lipoic acid nor ambroxol nor the ACE inhibitor, if applied alone, were capable of reducing the neuronal damage significantly"}
    ]},
    {"smiles": "O=C(O)CCCC[C@@H]1CCSS1", "note": "[α-Lipoic Acid, (R)-5-(1,2-dithiolane-3-yl-)pentanoic acid]", "values": [
      {"measurement": "neuronal damage, % of the damaged surface area, Median", "result": 13.54, "unit": "%"},
      {"measurement": "neuronal damage, % of the damaged surface area, Average Value", "result": 14.82, "unit": "%"},
      {"measurement": "neuroprotective effect, reduction of the neuronal damage after OGD (in words)", "result": "neither α-lipoic acid nor ambroxol nor the ACE inhibitor, if applied alone, were capable of reducing the neuronal damage significantly"}
    ]}
  ]
}
